Converted amounts (≈) assume the structure as drawn. Where a name gives a salt, the structure may show the parent alone. Read-outs that look alike come from different tables or passages of the source.
How the values were obtained:
[1] = system: section of the ileum (contractile response induced by transmural stimulation); experiment: Inhibitory effect on contractile response induced by transmural stimulation (Anti-TMS); format: cell-based, male Hartley strain guinea pig; settings: guinea pig ileum, transmural stimulation 5 Hz, 20-30 V, compound applied 20 minutes before; for IC50: Cavia porcellus, read-out: IC50 Anti-TMS (antispasmodic activity in vitro)
Procedure: (1) Inhibitory effect on contractile response induced by transmural stimulation (Anti-TMS)
From male Hartley strain guinea pig, weighing 300-350 g, section of the ileum about 3 cm in length was prepared and mounted in Tyrode's solution kept at 35° C. and oxygenated with 95% O2 --5% CO2, and responses of the ileum were recorded isotonically with an initial tension of 1 g. The ileum was stimulated electrically by the method of W. D. M. Paton [cf. […] The electrode was made of platinum and the intraluminal electrode was used at a frequency of 5 Hz and at a voltage sufficient to give a maximal response (20-30 V). Test compounds were applied 20 minutes before the stimulation.
(§1) In the experiments (1) and (2), each compound was tested in three different concentrations.

[2] = system: spontaneous gastric motility; experiment: Inhibitory effect on spontaneous gastric motility (Anti-SGM); parameters: species or system male Wistar strain rats; settings: Rattus norvegicus; conscious rats, fasted 18 hours, oral; read-out: ID50 Anti-SGM (antispasmodic activity in vivo)
Procedure: (2) Inhibitory effect on spontaneous gastric motility (Anti-SGM)
(§2) This effect was examined using male Wistar strain rats, weighing about 250 g, with chronically implanted strain gauge force transducer as mentioned in the experiment (1). The rats were usually allowed to stand for 3-5 days for recovery from the surgery and fasted for 18 hours before experiment. Then, spontaneous gastric motility in conscious rats were recorded and the sum of amplitude of each contraction was calculated every 15 minutes. Inhibitory effect of test compound by oral administration was expressed as a percent inhibition of initial spontaneous motility.

[3] = system: stomach (contractile response induced by carbachol); experiment: Inhibitor effect on contractile response induced by carbachol (Anti-Car); parameters: species or system male Wistar strain rats; settings: Rattus norvegicus, iv; anesthetized rats, carbachol 10 μg/kg, i.v.; read-out: ID50 Anti-Car (antispasmodic activity in vivo)
Procedure: (1) Inhibitor effect on contractile response induced by carbachol (Anti-Car)
This effect was examined using the strain gauge force transducer as described by X. B. Pascaud et al. [cf. Am. […] The transducer was sutured on the serosa of the stomach in anesthetized male Wistar strain rats, weighing about 250 g. This transducer can record simultaneously contractions and tone variation of the muscle. The contractile response induced by carbachol (10 μg/kg, i.v.) was estimated before and after administration of test compound. Inhibitory effect of test compound was expressed as a percent inhibition of the response.

[4] = system: section of the ileum (contractile response induced by acetylcholine); experiment: Inhibitor effect on contractile response induced by acetylcholine (Anti-ACh); format: cell-based, male Hartley strain guinea pig; settings: guinea pig ileum, acetylcholine 2×10^-8 g/ml, compound applied 2 minutes before; for IC50: Cavia porcellus, read-out: IC50 Anti-ACh (antispasmodic activity in vitro)
Procedure: (2) Inhibitor effect on contractile response induced by acetylcholine (Anti-ACh)
In the same manner as described in the above experiment (1), ileum preparation was prepared and mounted in Tyrode's solution. The response of the ileum to acetylcholine (2×10^-8 g/ml) were recorded isotonically. Test compounds were applied 2 minutes before adding the acetylcholine.
as §1

Mydriatic activity = settings: rat, in vivo, po
Source text: (§3) This activity was examined according to the method of P. Pelewka [cf.

Acute lethal toxicity = experiment: Acute lethal toxicity; parameters: species or system male and female Jcl:SD strain rats; settings: rat, in vivo, po, single oral, 7 days
[5] = Safety index (ED50 of mydriatic activity / ID50 of Anti-SGM); parameters: species or system male Wistar strain rats; settings: rat, in vivo, po
Procedure: as §2, with “motility. ID50 value, i.e., the dose required for 50% inhibition of spontaneous motility, was determined from regression line calculated by the maximum percent inhibition at each dose level.” for “motility.”

in vivo = settings: rat, po
Source text: as §3

Compound | IC50 [1] [µg/mL] | IC50 [4] [µg/mL] | also measured
CN1[C@@H]2CC[C@H]1C[C@@H](OC(=O)C(CO)c1ccccc1)C2 (stereo partly shown) [Atropine sulfate, atropine sulfate, reference compound] | 0.035 | 0.005 | ED50 [2]: 1.7 mg/kg; ED50 [3]: 0.0084 mg/kg; ED50 (Mydriatic activity): 3.5 mg/kg
CCN1CCCC(OC(=O)C(c2noc3ccccc23)N2CCCCCC2)C1 (stereo not shown) [Example 3] | 0.11 (≈ 0.285 µM) | 0.042 (≈ 0.109 µM) | –
CN1CCCC(OC(=O)C(c2noc3ccccc23)N2CCCCCC2)C1 (stereo not shown) [Example 8] | 0.11 (≈ 0.296 µM) | 0.039 (≈ 0.105 µM) | –
CN1CCC(OC(=O)C(c2noc3ccccc23)N2CCCCCC2)CC1 (stereo not shown) [Example 16, 1-methyl-4-piperidyl 2-hexamethyleneimino-2-(1,2-benzisoxazol-3-yl)acetate] | 0.034 (≈ 0.0915 µM) | 0.023 (≈ 0.0619 µM) | –
CC[N+]1(C)CCC(OC(=O)C(c2noc3ccccc23)N2CCCCCC2)CC1.[I-] (stereo not shown) [Example 17(i), 1-ethyl-1-methyl-4-[2-hexamethyleneimino-2-(1,2-benzisoxazol-3-yl)acetoxy]piperidinium iodide] | 0.14 | – | ED50 [2]: 26.3 mg/kg; LD50 at 168 h (Acute lethal toxicity; female rats): 6320 mg/kg; LD50 at 168 h (Acute lethal toxicity; male rats): 5430 mg/kg; ED50 [3]: 0.0187 mg/kg; ED50 (Mydriatic activity): > 3000 mg/kg; selectivity ratio ([5]; ED50 of mydriatic activity divided by ID50 of Anti-SGM, read-out: Safety index): > 114
C[N+]1(C)CCC(OC(=O)C(c2noc3ccccc23)N2CCCCCC2)CC1.[I-] (stereo not shown) [Example 20, 1,1-dimethyl-4-[2-hexamethyleneimino-2-(1,2-benzisoxazol-3-yl)acetoxy]piperidinium iodide] | 0.12 | 0.02 | –
C[N+]1(C)CCC(OC(=O)C(c2noc3ccccc23)N2CCCCC2)CC1.[I-] (stereo not shown) [Example 21, 1,1-Dimethyl-4-[2-piperidino-2-(1,2-benzisoxazol-3-yl)acetoxy]piperidinium iodide] | 0.09 | 0.032 | –
C[N+]1(C)CCC(OC(=O)C(c2noc3ccccc23)N2CCCCCC2)CC1 (stereo not shown) [Example 28] | – | – | IC50 Anti-TMS (antispasmodic activity in vitro) [1]: 0.1 µg/mL; IC50 Anti-ACh (antispasmodic activity in vitro) [4]: 0.013 µg/mL
CC[N+]1(C)CCC(OC(=O)C(c2noc3ccccc23)N2CCCCCC2)CC1 (stereo not shown) [Example 30] | 0.18 | 0.064 | –
CC[N+]1(C)CCC(OC(=O)C(c2noc3ccccc23)N2CCCCCC2)CC1 (stereo not shown) [Example 31] | – | – | IC50 Anti-TMS (antispasmodic activity in vitro) [1]: 0.12 µg/mL; IC50 Anti-ACh (antispasmodic activity in vitro) [4]: 0.055 µg/mL
CCCC[N+]1(C)C2CC(OC(=O)C(CO)c3ccccc3)CC1C1OC12 (stereo not shown) [Scopolamine-N-butyl bromide, scopolamine-N-butyl bromide, reference compound] | 0.44 | 0.089 | ED50 [2]: 100 mg/kg; ED50 [3]: 0.0201 mg/kg; ED50 (in vivo): 227 mg/kg; selectivity ratio [5]: 2

More lines, main results first:

IC50 [1] [µg/mL] | IC50 [4] [µg/mL] | Compound | also measured
0.096 | 0.022 | CC[N+]1(C)CCCC(OC(=O)C(c2noc3ccccc23)N2CCCCCC2)C1 (stereo not shown) [Example 22] | –
0.074 | 0.036 | CC1CCCN(C(C(=O)OC2CC[N+](C)(C)CC2)c2noc3ccccc23)C1 (stereo not shown) [Example 23] | –
0.1 | 0.036 | C[N+]1(C)CCCC(OC(=O)C(c2noc3ccccc23)N2CCCCCC2)C1 (stereo not shown) [Example 24] | –
0.088 | 0.014 | C[N+]1(C)CCC(OC(=O)C(c2noc3ccccc23)N2CCCCCCC2)CC1 (stereo not shown) [Example 27] | –
0.18 | 0.032 | CC[N+]1(C)CCC(OC(=O)C(c2noc3ccccc23)N2CCCC2)CC1 (stereo not shown) [Example 33] | –
– | 0.033 | CC[N+]1(C)CCC(OC(=O)C(c2noc3ccccc23)N2CCCCC2)CC1 (stereo not shown) [Example 34] | IC50 ([1]; 20 min): 0.044 µg/mL
0.11 | 0.029 | C[N+]1(C)CCC(OC(=O)C(c2noc3ccccc23)N2CCCCC2)CC1 (stereo not shown) [Example 36] | –
0.24 | 0.072 | CC1CCN(C(C(=O)OC2CC[N+](C)(C)CC2)c2noc3ccccc23)CC1 (stereo not shown) [Example 37] | –
– | 0.024 | C[N+]1(C)CCC(OC(=O)C(c2noc3ccccc23)N2CCCCCC2)CC1 (stereo not shown) [Example 38] | IC50 Anti-TMS (antispasmodic activity in vitro) [1]: 0.027 µg/mL
0.058 | 0.051 | C[N+]1(C)CCC(OC(=O)C(c2noc3ccccc23)N2CCCC2)CC1 (stereo not shown) [Example 39] | –
0.34 | 0.078 | C[N+]1(C)CCC(OC(=O)C(c2noc3ccc(Cl)cc23)N2CCCCCC2)CC1 (stereo not shown) [Example 42] | –
0.29 | 0.08 | C[N+]1(C)CCC(OC(=O)C(c2noc3ccc(F)cc23)N2CCCCCC2)CC1 (stereo not shown) [Example 44] | –

— patent US4447439A, “2-Cyclic amino-2-(1,2-benzisoxazol-3-yl)acetic acid ester derivatives, process for the preparation thereof and composition containing the same” (priority 1981, dated 1984)
